Entries after “also recorded” stand apart in the source; their conditions may differ.
Experiments:
FGF23/FGFR4 binding = target: T1, FGF23/FGFR4 binding (Homo sapiens, UniProt P22455+Q9GZV9, R179Q); assay: Surface plasmon resonance, FGF23 binding to surface FGFR4 with heparin or sKL in solution; details: heparin or sKL in solution
T1 construct: Fc-FGFR4 protein (human ectodomain) was immobilized; purchased R&D Systems human FGF23 2604FG025/CF; human FGFR4 685FR050
Method: For the direct quantitative analysis of label-free molecular interactions in real time, surface plasmon resonance studies were conducted using BIAcore T200 and T200 evaluation software (28975001, Cytiva). Sensor SA (BR100398) and CMS chips (BR100399) were from Cytiva. For the preparation of heparin chips, heparin (2 mg) and amine-PEG3-Biotin (2 mg, 21347, Pierce) were dissolved in 200 μl of H2O and 10 mg of NaCNBH3 was added. The reaction mixture was heated at 70° C. for 24 hours; an additional 10 mg of NaCNBH3 was added; and the reaction was heated at 70° C. for another 24 hours. After cooling to room temperature, the mixture was desalted with the spin column (3000 MWCO). Biotinylated heparin was collected, freeze dried, and used for chip preparation. Biotinylated heparin was immobilized to streptavidin chips according to the manufacturer's protocol. In brief, 20 μl of biotinylated heparin solution (0.1 mg/ml) in HBS-P running buffer (0.01 M N-2-hydroxyethylpiperazine-N′-2-ethanesulfonic acid, 0.15 M NaCl, 0.005% surfactant P20 [pH7.4]; BR100368, Cytiva) was injected over flow cell 2 of the streptavidin chip at a flow rate of 10 μl/min. The successful immobilization of heparin was confirmed by the observation of an approximately 200-resonance unit increase in the sensor chip. […] The response was monitored as a function of time (sensorgram) at 25° C.

[1] = test system: intact hearts isolated from adult mice; assay: Isolated heart contractility; parameters: species or system mouse; details: FGF23 9 ng/ml with heparin 0.06 USP/ml
Method: Isolated heart contractility was performed as described previously. 14,70,71 Briefly, 2- to 3-month-old male CD-1 mice were anesthetized using 3% isoflurane and hearts were carefully removed and placed into oxygenated Ringer's solution composed of 140 mM NaCl, 2.0 mM KCl, 2.5 mM CaCl2), 1.0 mM MgSO4, 1.5 mM K2HPO4, 10 mM N-2-hydroxyethylpiperazine-N-2-ethanesulfonic acid, and 10 mM glucose (pH 7.4). Atria were then removed, and the intact ventricular muscle was attached to small metallic clips hung vertically from a force transducer (ADInstruments) between bipolar platinum-stimulating electrodes and suspended in 25-ml glass tissue chambers (ADInstruments). Heart muscles were perfused with Ringer's solution continuously bubbled with 100% O2 at room temperature. Hearts were stretched to the length of maximum force development and paced at 1 Hz (5 ms pulse duration, 30-60 V; Grass Instruments SD9 Square Pulse Stimulator). After a stable baseline was obtained, hearts were treated with either vehicle or FGF23 (9 ng/ml) alone or in combination with heparin (0.06 USP/ml) while contractile force output was monitored for 30 minutes. Contractile data were recorded and analyzed with LabChart 8 software (ADInstruments). Waveform changes were analyzed for peak contraction force (in millinewtons) and maximum slope of force development and presented as fold change from baseline values.

FGF23 binding to FGFR3c = target: T2, FGF23 binding to FGFR3c (Homo sapiens, UniProt P22607+Q9GZV9); assay: Plate-based binding, FGF23 coated, then sKL, heparin or PBS, then Fc-FGFR; details: with sKL, with heparin 0.4 USP, or alone
T2 construct: Fc-coupled FGFR ectodomains were immobilized on protein A/G beads; purchased R&D Systems 2604FG025/CF or 2629FG025/CF; 766FR050
T2 sequence (Q9GZV9 25-251): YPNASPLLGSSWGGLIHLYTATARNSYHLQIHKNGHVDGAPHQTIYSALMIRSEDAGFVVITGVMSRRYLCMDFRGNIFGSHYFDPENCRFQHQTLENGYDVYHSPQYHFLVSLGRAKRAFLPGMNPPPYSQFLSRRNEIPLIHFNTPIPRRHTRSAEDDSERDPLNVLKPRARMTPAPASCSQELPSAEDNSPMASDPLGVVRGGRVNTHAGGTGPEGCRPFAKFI
T2 sequence (P22607 23-375 limits assumed): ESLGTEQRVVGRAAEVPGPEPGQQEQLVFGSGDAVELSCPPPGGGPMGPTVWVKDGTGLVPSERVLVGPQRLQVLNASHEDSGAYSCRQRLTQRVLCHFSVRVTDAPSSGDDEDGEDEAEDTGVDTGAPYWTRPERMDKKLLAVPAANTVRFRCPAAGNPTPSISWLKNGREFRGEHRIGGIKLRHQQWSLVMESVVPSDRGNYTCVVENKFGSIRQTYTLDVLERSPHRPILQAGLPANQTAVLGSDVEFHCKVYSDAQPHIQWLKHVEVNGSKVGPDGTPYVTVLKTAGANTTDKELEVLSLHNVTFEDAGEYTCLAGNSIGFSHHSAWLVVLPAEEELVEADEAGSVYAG
Method: (§1) Proteins were coated on 96-well plates (MaxiSorp; 439454, Thermo Fisher Scientific), and proteins were added to wells in 100 μl of enzyme-linked immunosorbent assay (ELISA) coating buffer (E107, Bethyl Laboratories) with a lid placed overtop and incubated at 4° C. overnight. Plates were washed 5× with 350 μl of assay buffer (50 mM Tris [pH 7.4], 200 mM NaCl, 0.01% Tween 20) on a 50 TS microplate washer (BioTek). Plates were blocked for 1 hour in 200 μl of assay buffer with 0.5% BSA. Plates were washed as before, and proteins were incubated on plates in 100 μl of assay buffer with 0.5% BSA. Proteins or heparin was incubated in orders described in the respective figure legends. Assays using FLAG-tag-based detection were incubated with anti-FLAG coupled to HRP at 1:20,000, and assays using Fc detection were incubated with anti-human Fc coupled to HRP at 1:10,000. Plates were washed as above, and 100 μl of 3,3′,5,5′-tetramethylbenzidine (TMB) substrate (E102, Bethyl Laboratories) was added for 15 to 20 minutes until positive wells developed a dark blue color. Reactions were stopped with ELISA stop solution (E115, Bethyl Laboratories) and analyzed using the Synergy HI plate reader (BioTek) at 450 nm wavelength. […] As a control to remove background absorbance values, wells were coated with an equal amount of BSA to match the amount of protein coated in experimental wells and treated the same as experimental wells. To study the effects of sKL on the binding between paracrine FGFs and FGFRs, plates were run as above except coated with paracrine FGFs. Fc-FGFR1 was preincubated with sKL or vehicle for 60 minutes, and then the combination was added to wells and the assay was run as before.

FGF23 binding to FGFR4 = target: T3, FGF23 binding to FGFR4 (Homo sapiens, UniProt P22455+Q9GZV9); assay: as above; details: with sKL, with heparin 0.4 USP, or alone
T3 construct: Fc-coupled FGFR ectodomains were immobilized on protein A/G beads; purchased R&D Systems 2604FG025/CF or 2629FG025/CF; 685FR050
T3 sequence (Q9GZV9 25-251): as the sequence (Q9GZV9 25-251) above
T3 sequence (P22455 22-369 limits assumed): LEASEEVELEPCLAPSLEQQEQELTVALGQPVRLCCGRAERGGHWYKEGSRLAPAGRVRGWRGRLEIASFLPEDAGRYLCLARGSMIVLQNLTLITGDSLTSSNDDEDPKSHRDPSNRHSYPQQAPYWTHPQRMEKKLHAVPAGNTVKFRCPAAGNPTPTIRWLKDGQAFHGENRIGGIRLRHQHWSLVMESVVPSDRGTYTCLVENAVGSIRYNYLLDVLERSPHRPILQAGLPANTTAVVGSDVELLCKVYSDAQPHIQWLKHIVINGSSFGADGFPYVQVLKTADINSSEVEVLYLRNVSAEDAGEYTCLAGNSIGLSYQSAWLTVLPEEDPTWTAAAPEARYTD
Method: as §1

T1 sequence (Q9GZV9 25-251 R179Q): as the sequence (Q9GZV9 25-251) above, with R155Q counted along it
T1 sequence (P22455 22-369 limits assumed): as the sequence (P22455 22-369 limits assumed) above

heparin [reference compound]
increase in FGF23/FGFR4 binding affinity (FGF23/FGFR4 binding): approximately 3 fold | FGF23-increased contraction force in the presence of heparin [1]: further increase; also recorded: further elevated | binding of coated FGF23 to Fc-FGFR3c (FGF23 binding to FGFR3c): no measurable binding | binding of coated FGF23 to Fc-FGFR4 (FGF23 binding to FGFR4): significantly increased; also recorded: the strongest

— patent US20240384250A1, “FIBROBLAST GROWTH FACTOR 23 MODULATING COMPOUNDS” (THE UAB RESEARCH FOUNDATION, priority 2021, published 2024)
